Laboratory results reported in patent US20050192221A1, “Methods and compositions related to plunc polypeptides” (priority 2003, published 2005).
Values after ≈ are worked out from the molar mass of the structure shown. Values joined by “and” are separate entries in the source; they are usually repeats but may differ in a detail not shown here. Identical values can stand only once. “Also recorded” adds a separate entry of the source. Like-named read-outs stand apart in the source and are kept apart here.

Tests used:
[1] = system: Haemophilus parainfluenzae; details: cited from earlier work
Listeria monocytogenes = details: unit assumed; cited from earlier work
Enterococcus spp. = details: unit assumed; cited from earlier work
Bacillus spp. = details: cited from earlier work
Borrelia burgdorferi = details: unit assumed; cited from earlier work
Bacteroides fragilis = details: cited from earlier work
Haemophilus influenzae = details: in µg/mL (unit assumed), cited from earlier work
Streptococcus pyogenes = details: in µg/mL (unit assumed); cited from earlier work
[2] = system: Branhamella (Moraxella) catarrhalis; details: Branhamella (Moraxella) catarrhalis (β-lactamase producer); in µg/mL (unit assumed); cited from earlier work
Staphylococcus aureus = details: cited from earlier work; for MIC50 / MIC90: unit assumed
Neisseria gonorrhoeae = details: in µg/mL (unit assumed), cited from earlier work
Streptococcus spp. = details: unit assumed; cited from earlier work
Campylobacter jejuni = details: in µg/mL (unit assumed); cited from earlier work
Streptococcus pneumoniae = details: in µg/mL (unit assumed); cited from earlier work
Enterococcus faecium = details: unit assumed; cited from earlier work
[3] = system: Bordetella bronchiseptica; details: cited from earlier work
Neisseria meningitidis = details: cited from earlier work
Campylobacter pylori = details: cited from earlier work
Haemophilus ducreyi = details: unit assumed; cited from earlier work
Streptococcus agalactiae = details: cited from earlier work
Mycoplasma hominis = details: cited from earlier work
Mycoplasma pneumoniae = details: cited from earlier work
LOS = experiment: Limulus amebocyte lysate assay, detected LOS; format: biochemical; details: proteins from cell free in vitro translation (RTS) or HeLa supernatants, dilutions 1:1 to 1:8; 0.1 ng/ml LOS
[4] = system: human peripheral blood mononuclear cells stimulated by N. meniningititis lipo-oligosaccharide (LOS); experiment: LOS stimulation of human peripheral blood mononuclear cells; format: cell-based; details: baculovirus culture supernatants, N-terminal tagged proteins, 10 ng/ml N. meniningititis LOS
[5] = system: TLR4 mediated signaling in human umbilical vein endothelial cells (HUVECS); experiment: LOS stimulated IL-8 release from HUVECS; format: cell-based; details: HUVECs treated overnight with LOS aggregates (3 ng/ml), soluble CD14 (250 ng/ml), LBP (100 ng/ml); ASL washings or supernatants of transfected 293 cells
Source text: FIGS. 2A-2B. Effects of airway surface liquid (ASL), PLUNC, and LPLUNC1 on TLR4 mediated signaling in human umbilical vein endothelial cells (HUVECS). HUVECS in a 24 well dish were exposed to LOS from N. Meningitidis overnight in the presence of SCD14 and LBP. […] Control=media alone. […] Control cells were transfected with a plasmid expressing GFP. The transfection efficiency, based on GFP expression was >75%.
Alternatively, the inventors also consider the possibility that the properties of the proteins may be LBP-like and that their function may depend on the available concentrations. The ability of ASL to inhibit TLR4-mediated signaling in response to N. meningitis lipooligosaccharide (LOS) was tested in human umbilical vein endothelial cells (HUVECs) (Giardina et al., 2001). ASL secretions were recovered from the apical surface of primary cultures of human airway epithelia grown in serum free media by washing the surface with PBS. As show in FIG. 2A, HUVECs treated overnight with LOS aggregates (3 ng/ml) in the presence of soluble CD14 (250 ng/ml) and LBP (100 ng/ml) released significant quantities of IL-8 into the cell culture media. […] To determine whether PLUNC and/or LPLUNC1 have similar effects on TLR4 signaling, the inventors expressed their cDNAs in 293 cells grown in serum free media and harvested supernatants 48 hr following transfection.

[6] = system: endotoxin from E. coli 0111:B4; experiment: Limulus amebocyte lysate assay, endotoxin spiked with serial dilutions; format: biochemical; details: 30 ng E. coli endotoxin/well spiked with serial dilutions of ASL washings or supernatant from LPLUNC1 transfected 293 cells
Experimental: FIG. 3. ASL and LPLUNC1 inhibit endotoxin activity in the Limulus amebocyte lysate assay. Endotoxin activity contrasted in control media (closed circles, 30 ng E. coli endotoxin/well), or 30 ng endotoxin samples spiked with serial dilutions of ASL washings (closed squares) or cell culture supernatant from LPLUNC1 transfected 293 cells (closed diamonds). 10 EU=1 ng endotoxin.
As confirmation of the endotoxin binding activities of ASL secretions and expressed LPLUNC1, an additional assay was performed. The Limulus amebocyte lystate assay (QCL-1000; BioWhittaker, Walkersville, Md.) was used to determine if these samples inhibited endotoxin activity in this extremely sensitive laboratory test. Lyophilized standard endotoxin from E. coli 0111:B4 in sterile water (chromogenic substrate) was spiked with serial dilutions of ASL washings, or supernatants from LPLUNC1 transfected cells. Endotoxin concentrations were determined by measuring the change in absorbance at 405 nm, as described previously (Thorne et al., 1999).

[7] = format: binding, N. meningitidis; details: recombinant LPLUNC1 C-terminal 6HIS incubated with 14C-LOS for 1 hr; versus Ad empty control supernatant
[8] = Haemophilus influenzae (non β-lactamase producer)
[9] = Haemophilus influenzae (penicillin resistant)
[10] = Haemophilus influenzae (penicillin susceptible)
[11] = Haemophilus influenzae (β-lactamase producer)
[12] = Staphylococcus aureus (penicillin susceptible)
[13] = Neisseria gonorrhoeae (non β-lactamase producer)

## CC[C@H]1OC(=O)[C@H](C)[C@@H](O[C@H]2C[C@@](C)(OC)[C@@H](O)[C@H](C)O2)[C@H](C)[C@@H](O[C@@H]2O[C@H](C)C[C@H](N(C)C)[C@H]2O)[C@](C)(O)C[C@@H](C)C(=O)[C@H](C)[C@@H](O)[C@]1(C)O [ERYTHROMYCIN, erythromycin]
[1]; in µg/mL (unit assumed)
  Range (of MIC): 0.5-8
[1]; unit assumed
  MIC50: 2 µg/mL (≈ 2.73 µM)
  MIC90: 4 µg/mL (≈ 5.45 µM)
Listeria monocytogenes
  MIC50: 0.5 µg/mL (≈ 0.681 µM)
Enterococcus spp.
  MIC50: 2 µg/mL (≈ 2.73 µM)
Bacillus spp.; in µg/mL (unit assumed)
  Range (of MIC): 0.03-2
Bacillus spp.; unit assumed
  MIC90: 2 µg/mL (≈ 2.73 µM)
Borrelia burgdorferi
  MIC50: 0.03 µg/mL (≈ 0.0409 µM)
  MIC90: 0.06 µg/mL (≈ 0.0818 µM)
Bacteroides fragilis; in µg/mL (unit assumed)
  Range (of MIC): 0.25-16
Bacteroides fragilis; unit assumed
  MIC50: 1 µg/mL (≈ 1.36 µM)
  MIC90: 8 µg/mL (≈ 10.9 µM)
Haemophilus influenzae; [8]
  MIC50: 2 and 4
  MIC90: 4 and 8
Haemophilus influenzae; [9]
  MIC50: 8
  MIC90: 16
  Range (of MIC): 8-16
Haemophilus influenzae; [10]
  MIC50: 8
  MIC90: 16
  Range (of MIC): 0.25-16
Haemophilus influenzae; [11]
  MIC50: 4 and 2
  MIC90: 8 and 4
Haemophilus influenzae; Haemophilus influenzae
  MIC50: 2 and 1
  MIC90: 2 and 4
  Range (of MIC): 0.5-8
Streptococcus pyogenes
  MIC50: 0.06 and 0.03
[2]
  Range (of MIC): 0.06-1 and 0.03-0.25 and 0.06-8
Staphylococcus aureus; Staphylococcus aureus (methicillin susceptible)
  MIC50: 0.5 µg/mL (≈ 0.681 µM)
Staphylococcus aureus; [12]
  MIC50: 0.5 µg/mL (≈ 0.681 µM)
  MIC90: 0.5 µg/mL (≈ 0.681 µM)
Staphylococcus aureus; Staphylococcus aureus
  MIC50: 0.5 µg/mL (≈ 0.681 µM)
Neisseria gonorrhoeae; [13]
  MIC90: 1 and 2
  Range (of MIC): 0.03-2 and 0.015-4
Neisseria gonorrhoeae; Neisseria gonorrhoeae (β-lactamase producer)
  MIC90: 2 and 4
Neisseria gonorrhoeae; Neisseria gonorrhoeae
  MIC90: 1
  Range (of MIC): 0.0075-8
Streptococcus spp.
  MIC50: 0.03 µg/mL (≈ 0.0409 µM)
Campylobacter jejuni
  MIC90: 4 and 2
  Range (of MIC): 0.5-8
Streptococcus pneumoniae
  MIC50: 0.06 and 0.03
  MIC90: 0.03 and 0.06
  Range (of MIC): 0.03-0.25 and 0.015-0.06 and 0.015-0.25
Enterococcus faecium
  MIC50: 1 µg/mL (≈ 1.36 µM)
[3]; in µg/mL (unit assumed)
  Range (of MIC): 4-32
[3]; unit assumed
  MIC50: 8 µg/mL (≈ 10.9 µM)
  MIC90: 32 µg/mL (≈ 43.6 µM)
Neisseria meningitidis; in µg/mL (unit assumed)
  Range (of MIC): 0.5-8
Neisseria meningitidis; unit assumed
  MIC50: 1 µg/mL (≈ 1.36 µM)
  MIC90: 8 µg/mL (≈ 10.9 µM)
Campylobacter pylori; in µg/mL (unit assumed)
  Range (of MIC): 0.25-16
Campylobacter pylori; unit assumed
  MIC50: 0.5 µg/mL (≈ 0.681 µM)
Haemophilus ducreyi
  MIC50: 0.004 µg/mL (≈ 0.00545 µM)
  MIC90: 0.06 µg/mL (≈ 0.0818 µM)
Streptococcus agalactiae; in µg/mL (unit assumed)
  Range (of MIC): 0.03-0.25 and 0.015-0.06
Streptococcus agalactiae; unit assumed
  MIC50: 0.03 µg/mL (≈ 0.0409 µM)
  MIC90: 0.03 µg/mL (≈ 0.0409 µM)

## CCC[C@@H]1C[C@@H](C(=O)N[C@@H]([C@H]2O[C@H](SC)[C@H](O)[C@@H](O)[C@H]2O)[C@@H](C)O)N(C)C1 [LINCOMYCIN, lincomycin]
Mycoplasma hominis; in µg/mL (unit assumed)
  Range (of MIC): 0.5-16
Mycoplasma hominis; unit assumed
  MIC50: 2 µg/mL (≈ 4.92 µM)
  MIC90: 4 µg/mL (≈ 9.84 µM)
Mycoplasma pneumoniae; in µg/mL (unit assumed)
  Range (of MIC): 2-32
Mycoplasma pneumoniae; unit assumed
  MIC50: 8 µg/mL (≈ 19.7 µM)
  MIC90: 32 µg/mL (≈ 78.7 µM)
Staphylococcus aureus; Staphylococcus aureus, in µg/mL (unit assumed)
  Range (of MIC): 0.5-512
Staphylococcus aureus; Staphylococcus aureus
  MIC50: 1 µg/mL (≈ 2.46 µM)
  MIC90: 1 µg/mL (≈ 2.46 µM)

B1: PLUNC: human palate, lung, and nasal epithelium clone protein, 256 amino acids; tested as recombinant culture supernatant or in vitro translation product (protein, UniProt Q9NP55 20-256, looked up)
BPI fold-containing family A …: QFGGLPVPLDQTLPLNVNPALPLSPTGLAGSLTNALSNGLLSGGLLGILENLPLLDILKPGGGTSGGLLGGLLGKVTSVIPGLNNIIDIKVTDPQLLELGLVQSPDGHRLYVTIPLGIKLQVNTPLVGASLLRLAVKLDITAEILAVRDKQERIHLVLGDCTHSPGSLQISLLDGLGPLPIQGLLDSLTGILNKVLPELVQGNVCPLVNEVLRGLDITLVHDIVNMLIHGLQFVIKV
LOS
  detectable level of LOS: dose-dependent decrease in detected LOS
[4]
  effect on responsiveness of PBMC to LOS stimulation: LBP-like pro-inflammatory activity
[4]; listed as SPLUNC1
  effect on responsiveness of PBMC to LOS stimulation: enhanced the LOS signaling
[5]
  effect on LOS stimulated IL-8 release from HUVECS: dampened IL-8 secretion

B2: LPLUNC1: human long PLUNC protein, 484 amino acids; tested as recombinant culture supernatant, in vitro translation product or 6HIS tagged protein (protein, UniProt Q8TDL5 22-484, looked up)
BPI fold-containing family B …: TLSPTAVLILGPKVIKEKLTQELKDHNATSILQQLPLLSAMREKPAGGIPVLGSLVNTVLKHIIWLKVITANILQLQVKPSANDQELLVKIPLDMVAGFNTPLVKTIVEFHMTTEAQATIRMDTSASGPTRLVLSDCATSHGSLRIQLLHKLSFLVNALAKQVMNLLVPSLPNLVKNQLCPVIEASFNGMYADLLQLVKVPISLSIDRLEFDLLYPAIKGDTIQLYLGAKLLDSQGKVTKWFNNSAASLTMPTLDNIPFSLIVSQDVVKAAVAAVLSPEEFMVLLDSVLPESAHRLKSSIGLINEKAADKLGSTQIVKILTQDTPEFFIDQGHAKVAQLIVLEVFPSSEALRPLFTLGIEASSEAQFYTKGDQLILNLNNISSDRIQLMNSGIGWFQPDVLKNIITEIIHSILLPNQNGKLRSGVPVSLVKALGFEAAESSLTKDALVLTPASLWKPSSPVSQ
[6]
  inhibition of endotoxin activity: inhibited endotoxin activity in a dose dependent fashion
LOS
  detectable level of LOS: dose-dependent decrease in detected LOS
[4]
  effect on responsiveness of PBMC to LOS stimulation: BPI-like inhibitory effects; also recorded: dampened the proinflammatory effect of LOS
[5]
  effect on LOS stimulated IL-8 release from HUVECS: dampened IL-8 secretion
[7]
  14C-LOS recovered with nickel resin: Significantly more LOS was recovered
